Drawing on ChEMBL document CHEMBL1155809, “Design, synthesis, and antihepatocellular carcinoma activity of nitric oxide releasing derivatives of oleanolic acid” (J Med Chem, 2008), this text covers Activity for 23 compounds.

One assay concerns Hep 3B2. Kind of assay: Cytotoxicity against human Hep3B cells assessed as cell death after 24 hrs by lactate dehydrogenase release assay. Type of assay: functional, cell-based.
In the next assay the test system is HepG2. Briefly: Cytotoxicity against human HepG2 cells assessed as cell death after 24 hrs by lactate dehydrogenase release assay. The class given is functional, cell-based.

Calls of active or inactive are those of the source. The rule behind the calls is not given here.

For `CC1(C)CC[C@]2(C(=O)OCc3ccccc3)CC[C@]3(C)C(=CC[C@@H]4[C@@]5(C)CC[C@H](OC(=O)CCC(=O)OCCCCOc6no[n+]([O-])c6S(=O)(=O)c6ccccc6)C(C)(C)[C@@H]5CC[C@]43C)[C@@H]2C1`, the result in the assay with Hep 3B2 and in the assay with HepG2 was inactive.
As for `CC1(C)CC[C@]2(C(=O)OCCCCOc3no[n+]([O-])c3S(=O)(=O)c3ccccc3)CC[C@]3(C)C(=CC[C@@H]4[C@@]5(C)CC[C@H](OC(=O)C(F)(F)F)C(C)(C)[C@@H]5CC[C@]43C)[C@@H]2C1`, the result in the assay on Hep 3B2 and in the assay on HepG2 was inactive.
As to `CCOC(=O)[C@]12CCC(C)(C)C[C@H]1C1=CC[C@@H]3[C@@]4(C)CC[C@H](OC(=O)CCC(=O)OCc5cccc(OCc6c(-c7ccccc7)no[n+]6[O-])c5)C(C)(C)[C@@H]4CC[C@@]3(C)[C@]1(C)CC2`, the result in the assay with Hep 3B2 and with HepG2 was inactive.
`CC1(C)CC[C@]2(C(=O)OCc3ccccc3)CC[C@]3(C)C(=CC[C@@H]4[C@@]5(C)CC[C@H](OC(=O)CCC(=O)OCc6c(-c7ccccc7)no[n+]6[O-])C(C)(C)[C@@H]5CC[C@]43C)[C@@H]2C1`: the outcome in the assay on Hep 3B2 and with HepG2 was inactive.
For `CC1(C)CC[C@]2(C(=O)OCc3ccc(Oc4no[n+]([O-])c4S(=O)(=O)c4ccccc4)cc3)CC[C@]3(C)C(=CC[C@@H]4[C@@]5(C)CC[C@H](OC(=O)C(F)(F)F)C(C)(C)[C@@H]5CC[C@]43C)[C@@H]2C1`, the result in the assay on Hep 3B2 and in the assay with HepG2 was inactive.
In the case of `CC1(C)CC[C@]2(C(=O)O)CC[C@]3(C)C(=CC[C@@H]4[C@@]5(C)CC[C@H](OC(=O)CCC(=O)OCc6ccc(OCc7c(-c8ccccc8)no[n+]7[O-])cc6)C(C)(C)[C@@H]5CC[C@]43C)[C@@H]2C1`, the outcome with Hep 3B2 and in the assay on HepG2 was inactive.
Consider `CC1(C)CC[C@]2(C(=O)OCCCCOc3no[n+]([O-])c3S(=O)(=O)c3ccccc3)CC[C@]3(C)C(=CC[C@@H]4[C@@]5(C)CC[C@H](O)C(C)(C)[C@@H]5CC[C@]43C)[C@@H]2C1`, for which the result in the assay with Hep 3B2 and in the assay with HepG2 was inactive.
As for `CC1(C)CC[C@]2(C(=O)OCC#CCOc3no[n+]([O-])c3S(=O)(=O)c3ccccc3)CC[C@]3(C)C(=CC[C@@H]4[C@@]5(C)CC[C@H](OC(=O)C(F)(F)F)C(C)(C)[C@@H]5CC[C@]43C)[C@@H]2C1`, the outcome in the assay with Hep 3B2 and in the assay with HepG2 was inactive.
As to `CC1(C)CC[C@]2(C(=O)O)CC[C@]3(C)C(=CC[C@@H]4[C@@]5(C)CC[C@H](OC(=O)CCC(=O)Oc6cccc(OCc7c(-c8ccccc8)no[n+]7[O-])c6)C(C)(C)[C@@H]5CC[C@]43C)[C@@H]2C1`, the outcome in the assay on Hep 3B2 and in the assay on HepG2 was inactive.
Turning to `CC1(C)CC[C@]2(C(=O)OCc3cccc(OCc4c(-c5ccccc5)no[n+]4[O-])c3)CC[C@]3(C)C(=CC[C@@H]4[C@@]5(C)CC[C@H](O)C(C)(C)[C@@H]5CC[C@]43C)[C@@H]2C1`, the result in the assay with Hep 3B2 and in the assay on HepG2 was inactive.
Consider `CC1(C)CC[C@]2(C(=O)OCc3c(-c4ccccc4)no[n+]3[O-])CC[C@]3(C)C(=CC[C@@H]4[C@@]5(C)CC[C@H](O)C(C)(C)[C@@H]5CC[C@]43C)[C@@H]2C1`, for which the result in the assay on Hep 3B2 and with HepG2 was inactive.
Turning to `CC1(C)CC[C@]2(C(=O)O)CC[C@]3(C)C(=CC[C@@H]4[C@@]5(C)CC[C@H](OC(=O)CCC(=O)OCc6ccc(Oc7no[n+]([O-])c7S(=O)(=O)c7ccccc7)cc6)C(C)(C)[C@@H]5CC[C@]43C)[C@@H]2C1`, the outcome with Hep 3B2 and with HepG2 was inactive.
On to `CC1(C)CC[C@]2(C(=O)OCc3c(-c4ccccc4)no[n+]3[O-])CC[C@]3(C)C(=CC[C@@H]4[C@@]5(C)CC[C@H](OC(=O)C(F)(F)F)C(C)(C)[C@@H]5CC[C@]43C)[C@@H]2C1`, for which the outcome with Hep 3B2 and with HepG2 was inactive.
On to `CC1(C)CC[C@]2(C(=O)OCc3ccccc3)CC[C@]3(C)C(=CC[C@@H]4[C@@]5(C)CC[C@H](OC(=O)CCC(=O)OCc6cccc(Oc7no[n+]([O-])c7S(=O)(=O)c7ccccc7)c6)C(C)(C)[C@@H]5CC[C@]43C)[C@@H]2C1`, for which the outcome in the assay on Hep 3B2 and in the assay with HepG2 was inactive.
`CCOC(=O)[C@]12CCC(C)(C)C[C@H]1C1=CC[C@@H]3[C@@]4(C)CC[C@H](OC(=O)CCC(=O)OCCOCCOc5no[n+]([O-])c5S(=O)(=O)c5ccccc5)C(C)(C)[C@@H]4CC[C@@]3(C)[C@]1(C)CC2`: the result in the assay with Hep 3B2 and in the assay with HepG2 was inactive.
On to `CC1(C)CC[C@]2(C(=O)OCCOCCOc3no[n+]([O-])c3S(=O)(=O)c3ccccc3)CC[C@]3(C)C(=CC[C@@H]4[C@@]5(C)CC[C@H](OC(=O)C(F)(F)F)C(C)(C)[C@@H]5CC[C@]43C)[C@@H]2C1`, for which the outcome with Hep 3B2 and in the assay with HepG2 was inactive.
In the case of `CC1(C)CC[C@]2(C(=O)OCc3ccccc3)CC[C@]3(C)C(=CC[C@@H]4[C@@]5(C)CC[C@H](OC(=O)CCC(=O)OCc6ccc(Oc7no[n+]([O-])c7S(=O)(=O)c7ccccc7)cc6)C(C)(C)[C@@H]5CC[C@]43C)[C@@H]2C1`, the outcome in the assay with Hep 3B2 and in the assay with HepG2 was inactive.
As to `CC(CCOc1no[n+]([O-])c1S(=O)(=O)c1ccccc1)OC(=O)CCC(=O)O[C@H]1CC[C@]2(C)[C@H]3CC=C4[C@@H]5CC(C)(C)CC[C@]5(C(=O)OCc5ccccc5)CC[C@@]4(C)[C@]3(C)CC[C@H]2C1(C)C` (stereo partly specified), the result with Hep 3B2 and in the assay on HepG2 was inactive.
Consider `CCOC(=O)[C@]12CCC(C)(C)C[C@H]1C1=CC[C@@H]3[C@@]4(C)CC[C@H](OC(=O)CCC(=O)OC(C)CCOc5no[n+]([O-])c5S(=O)(=O)c5ccccc5)C(C)(C)[C@@H]4CC[C@@]3(C)[C@]1(C)CC2` (stereo partly specified), for which the result with Hep 3B2 and in the assay on HepG2 was inactive.
As to `CC1(C)CC[C@]2(C(=O)O)CC[C@]3(C)C(=CC[C@@H]4[C@@]5(C)CC[C@H](OC(=O)CCC(=O)OCc6cccc(OCc7c(-c8ccccc8)no[n+]7[O-])c6)C(C)(C)[C@@H]5CC[C@]43C)[C@@H]2C1`, the outcome in the assay with Hep 3B2 and with HepG2 was inactive.
For `CC1(C)CC[C@]2(C(=O)OCc3ccc(OCc4c(-c5ccccc5)no[n+]4[O-])cc3)CC[C@]3(C)C(=CC[C@@H]4[C@@]5(C)CC[C@H](OC(=O)C(F)(F)F)C(C)(C)[C@@H]5CC[C@]43C)[C@@H]2C1`, the outcome in the assay with Hep 3B2 and in the assay on HepG2 was inactive.
As to `CC1(C)CC[C@]2(C(=O)OCc3cccc(OCc4c(-c5ccccc5)no[n+]4[O-])c3)CC[C@]3(C)C(=CC[C@@H]4[C@@]5(C)CC[C@H](OC(=O)C(F)(F)F)C(C)(C)[C@@H]5CC[C@]43C)[C@@H]2C1`, the outcome in the assay with Hep 3B2 and in the assay with HepG2 was inactive.
Turning to `CCOC(=O)[C@]12CCC(C)(C)C[C@H]1C1=CC[C@@H]3[C@@]4(C)CC[C@H](OC(=O)CCC(=O)OCc5ccc(OCc6c(-c7ccccc7)no[n+]6[O-])cc5)C(C)(C)[C@@H]4CC[C@@]3(C)[C@]1(C)CC2`, the outcome with Hep 3B2 and with HepG2 was inactive.
